Test results taken from patent US20230085307A1, “PYRIDAZINONE COMPOUND AND HERBICIDE” (NISSAN CHEMICAL CORPORATION, priority 2019, published 2023).

What was measured:
[1] = tested on: barnyard grass; assay: Test Example 3: herbicidal effect by foliage application, Wagner pot (Table 18, symbol H); format: in vivo, barnyard grass (Echinochloa crus-galli); conditions: for herbicidal effect on barnyard grass (H): 320 g/ha
How it was run: (§1)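 Plants were sown in alluvial soil held under 0.1–0.5 cm standing water and grown 14 days in a greenhouse at 25–30 °C. An emulsifiable formulation, water-diluted to the set dose, was then sprayed onto the foliage, and effects were scored three weeks later using previously defined criteria.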

[2] = tested on: persian speedwell; assay: Test Example 5: herbicidal effect by foliage application, plastic box (Table 20, symbol R); format: in vivo, Persian speedwell (Veronica persica); conditions: 320 g/ha; for R: persian speedwell, herbicidal effect grade: foliage application, three weeks after application
How it was run: (§2)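 Sow seeds spot-wise in sterilized diluvial soil; cover with ~1.5 cm soil. Grow 14 days in greenhouse, 25° C. to 30° C. Spray foliage with emulsion diluted to predetermined amount. Rate effect after 3 weeks.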

[3] = tested on: Italian ryegrass; assay: Test Example 5: herbicidal effect by foliage application, plastic box (Table 20, symbol K); format: in vivo, Italian ryegrass (Lolium multiflorum); conditions: 320 g/ha; for K: Italian ryegrass, herbicidal effect grade: foliage application, three weeks after application
How it was run: as §2

[4] = tested on: rice flat sedge; assay: Test Example 3: herbicidal effect by foliage application, Wagner pot (Table 18, symbol E); format: in vivo, rice flat sedge (Cyperus iria); conditions: for herbicidal effect on rice flat sedge (E): 320 g/ha
How it was run: as §1

[5] = tested on: southern crabgrass; assay: Test Example 5: herbicidal effect by foliage application, plastic box (Table 20, symbol F); format: in vivo, southern crabgrass (Digitaria ciliaris); conditions: 320 g/ha; for F: southern crabgrass, herbicidal effect grade: foliage application, three weeks after application
How it was run: as §2

[6] = tested on: windgrass; assay: Test Example 5: herbicidal effect by foliage application, plastic box (Table 20, symbol L); format: in vivo, windgrass (Apera spica-venti); conditions: 320 g/ha; for L: windgrass, herbicidal effect grade: foliage application, three weeks after application
How it was run: as §2

[7] = tested on: lambsquarters; assay: Test Example 5: herbicidal effect by foliage application, plastic box (Table 20, symbol O); format: in vivo, lambsquarters (Chenopodium album); conditions: 320 g/ha; for O: lambsquarters, herbicidal effect grade: foliage application, three weeks after application
How it was run: as §2

[8] = tested on: redroot pigweed; assay: Test Example 5: herbicidal effect by foliage application, plastic box (Table 20, symbol N); format: in vivo, redroot pigweed (Amaranthus retroflexus); conditions: 320 g/ha; for N: redroot pigweed, herbicidal effect grade: foliage application, three weeks after application
How it was run: as §2

[9] = tested on: wild oat; assay: Test Example 5: herbicidal effect by foliage application, plastic box (Table 20, symbol I); format: in vivo, wild oat (Avena fatua); conditions: 320 g/ha; for I: wild oat, herbicidal effect grade: foliage application, three weeks after application
How it was run: as §2

[10] = tested on: Chinese sprangletop; assay: Test Example 3: herbicidal effect by foliage application, Wagner pot (Table 18, symbol D); format: in vivo, chinese sprangletop (Leptochloa chinensis); conditions: for herbicidal effect on Chinese sprangletop (D): 320 g/ha
How it was run: as §1

[11] = tested on: chickweed; assay: Test Example 5: herbicidal effect by foliage application, plastic box (Table 20, symbol P); format: in vivo, common chickweed (Stellaria media); conditions: 320 g/ha; for P: chickweed, herbicidal effect grade: foliage application, three weeks after application
How it was run: as §2

[12] = tested on: green foxtail; assay: Test Example 5: herbicidal effect by foliage application, plastic box (Table 20, symbol G); format: in vivo, green foxtail (Setaria viridis); conditions: 320 g/ha; for G: green foxtail, herbicidal effect grade: foliage application, three weeks after application
How it was run: as §2

[13] = tested on: velvetleaf; assay: Test Example 5: herbicidal effect by foliage application, plastic box (Table 20, symbol M); format: in vivo, velvetleaf (Abutilon theophrasti); conditions: 320 g/ha; for M: velvetleaf, herbicidal effect grade: foliage application, three weeks after application
How it was run: as §2

[14] = tested on: blackgrass; assay: Test Example 5: herbicidal effect by foliage application, plastic box (Table 20, symbol J); format: in vivo, blackgrass (Alopecurus myosuroides); conditions: 320 g/ha; for J: blackgrass, herbicidal effect grade: foliage application, three weeks after application
How it was run: as §2

[15] = tested on: barnyard grass; assay: Test Example 5: herbicidal effect by foliage application, plastic box (Table 20, symbol H); format: in vivo, barnyard grass (Echinochloa crus-galli); conditions: 320 g/ha; for H: barnyard grass, herbicidal effect grade: foliage application, three weeks after application
How it was run: as §2

[16] = amount of applied herbicide 320 g/ha
[17] = foliage application after 14-day growth, evaluated three weeks after application

## COc1ccccc1-c1sc2cc(F)ccc2c1-c1c(OC(=O)c2ccccc2C)c(C)nn(C)c1=O [3-022]
[1]; [16]
  herbicidal effect on H: barnyard grass: 4 (Herbicidal rate of 70% or more and less than 90%)
[2]
  R: persian speedwell, herbicidal effect grade: 0 (Herbicidal rate of 5% or less (almost no effect))
[3]
  K: Italian ryegrass, herbicidal effect grade: 0 (Herbicidal rate of 5% or less (almost no effect))
[4]; [16]
  herbicidal effect on E: rice flat sedge: 0 (Herbicidal rate of 5% or less (almost no effect))
[5]
  F: southern crabgrass, herbicidal effect grade: 0 (Herbicidal rate of 5% or less (almost no effect))
[6]
  L: windgrass, herbicidal effect grade: 0 (Herbicidal rate of 5% or less (almost no effect))
[7]
  O: lambsquarters, herbicidal effect grade: 0 (Herbicidal rate of 5% or less (almost no effect))
[8]
  N: redroot pigweed, herbicidal effect grade: 3 (Herbicidal rate of 40% or more and less than 70%)
[9]
  I: wild oat, herbicidal effect grade: 0 (Herbicidal rate of 5% or less (almost no effect))
[10]; [16]
  herbicidal effect on D: Chinese sprangletop: 2 (Herbicidal rate of 20% or more and less than 40%)
[11]
  P: chickweed, herbicidal effect grade: 3 (Herbicidal rate of 40% or more and less than 70%)
[12]
  G: green foxtail, herbicidal effect grade: 0 (Herbicidal rate of 5% or less (almost no effect))
[13]
  M: velvetleaf, herbicidal effect grade: 0 (Herbicidal rate of 5% or less (almost no effect))
[14]
  J: blackgrass, herbicidal effect grade: 0 (Herbicidal rate of 5% or less (almost no effect))
[15]
  H: barnyard grass, herbicidal effect grade: 0 (Herbicidal rate of 5% or less (almost no effect))

## CCOc1ccccc1-c1sc2cc(O)ccc2c1-c1c(O)c(C)nn(C)c1=O [3-097]
[1]
  herbicidal effect on barnyard grass (H): 4 (Herbicidal rate of 70% or more and less than 90%)
[2]
  R: persian speedwell, herbicidal effect grade: 3 (Herbicidal rate of 40% or more and less than 70%)
[3]
  K: Italian ryegrass, herbicidal effect grade: 0 (Herbicidal rate of 5% or less (almost no effect))
[4]
  herbicidal effect on rice flat sedge (E): 3 (Herbicidal rate of 40% or more and less than 70%)
[5]
  F: southern crabgrass, herbicidal effect grade: 4 (Herbicidal rate of 70% or more and less than 90%)
[6]
  L: windgrass, herbicidal effect grade: 2 (Herbicidal rate of 20% or more and less than 40%)
[7]
  O: lambsquarters, herbicidal effect grade: 3 (Herbicidal rate of 40% or more and less than 70%)
[8]
  N: redroot pigweed, herbicidal effect grade: 4 (Herbicidal rate of 70% or more and less than 90%)
[9]
  I: wild oat, herbicidal effect grade: 1 (Herbicidal rate of 5% or more and less than 20%)
[10]
  herbicidal effect on Chinese sprangletop (D): 4 (Herbicidal rate of 70% or more and less than 90%)
[11]
  P: chickweed, herbicidal effect grade: 3 (Herbicidal rate of 40% or more and less than 70%)
[12]
  G: green foxtail, herbicidal effect grade: 5 (Herbicidal rate of 90% or more (almost completely withered))
[13]
  M: velvetleaf, herbicidal effect grade: 3 (Herbicidal rate of 40% or more and less than 70%)
[14]
  J: blackgrass, herbicidal effect grade: 0 (Herbicidal rate of 5% or less (almost no effect))
[15]
  H: barnyard grass, herbicidal effect grade: 2 (Herbicidal rate of 20% or more and less than 40%)

## CCCC(=O)Oc1c(C)nn(C)c(=O)c1-c1c(-c2ccc(OC(F)(F)F)cc2)sc2cc(Cl)ccc12 [3-150]
[1]
  herbicidal effect on barnyard grass (H): 5 (Herbicidal rate of 90% or more (almost completely withered))
[2]; [17]
  herbicidal effect on R: persian speedwell (evaluation grade 0-5): 5 (Herbicidal rate of 90% or more (almost completely withered))
[3]; [17]
  herbicidal effect on K: Italian ryegrass (evaluation grade 0-5): 0 (Herbicidal rate of 5% or less (almost no effect))
[4]
  herbicidal effect on rice flat sedge (E): 2 (Herbicidal rate of 20% or more and less than 40%)
[5]; [17]
  herbicidal effect on F: southern crabgrass (evaluation grade 0-5): 0 (Herbicidal rate of 5% or less (almost no effect))
[6]; [17]
  herbicidal effect on L: windgrass (evaluation grade 0-5): 0 (Herbicidal rate of 5% or less (almost no effect))
[7]; [17]
  herbicidal effect on O: lambsquarters (evaluation grade 0-5): 4 (Herbicidal rate of 70% or more and less than 90%)
[8]; [17]
  herbicidal effect on N: redroot pigweed (evaluation grade 0-5): 3 (Herbicidal rate of 40% or more and less than 70%)
[9]; [17]
  herbicidal effect on I: wild oat (evaluation grade 0-5): 0 (Herbicidal rate of 5% or less (almost no effect))
[10]
  herbicidal effect on Chinese sprangletop (D): 3 (Herbicidal rate of 40% or more and less than 70%)
[11]; [17]
  herbicidal effect on P: chickweed (evaluation grade 0-5): 3 (Herbicidal rate of 40% or more and less than 70%)
[12]; [17]
  herbicidal effect on G: green foxtail (evaluation grade 0-5): 0 (Herbicidal rate of 5% or less (almost no effect))
[13]; [17]
  herbicidal effect on M: velvetleaf (evaluation grade 0-5): 2 (Herbicidal rate of 20% or more and less than 40%)
[14]; [17]
  herbicidal effect on J: blackgrass (evaluation grade 0-5): 0 (Herbicidal rate of 5% or less (almost no effect))
[15]; [17]
  herbicidal effect on H: barnyard grass (evaluation grade 0-5): 3 (Herbicidal rate of 40% or more and less than 70%)
